# Data as given in ChEMBL document CHEMBL5576125, “Discovery of Pyrazolopyrazines as Selective, Potent, and Mutant-Active MET Inhibitors with Intracranial Efficacy” (J Med Chem, 2024).
# Active and inactive are the calls of the source. The rule behind the calls is not given here.
# Key:
# [1] = Clearance in female athymic nude Foxn1nu mouse at 1 mg/kg, iv administered as single dose and measured after 24 hrs by LC/MS analysis; assay type: ADME, organism-based; details: in vivo
# [2] = test system: NIH3T3; test: Antitumor activity against mouse NIH3T3 cells expressing luciferase and human MET exon 14 deletion construct with MET-D1228N Type I resistance mutation implanted in female athymic nude Foxn1nu mouse assessed as animal survival rate at 100 mg/kg, po qd measured until 80 days relative to control; assay type: functional; details: NIH3T3, 1920 h, time 80 day
# [3] = Cmax in female athymic nude Foxn1nu mouse brain at 30 mg/kg, po administered as single dose and measured after 24 hrs by LC/MS analysis; assay type: ADME, organism-based; details: in vivo
# [4] = target: T1, Hepatocyte growth factor receptor (Homo sapiens, UniProt P08581, D1228N); test: Displacement of tracer 236 from N-terminal GST-tagged recombinant human MET D1228N mutant (956 to end residues) expressed in Sf9 insect cells incubated for 1 hr by TR-FRET assay
# [5] = test system: Hs746T; test: Antitumor activity against human Hs746T cells expressing MET exon 14 skipping mutation with MET amplification xenografted in female athymic nude Foxn1nu mouse at 3 to 30 mg/kg, po bid administered for 14 days; assay type: functional, organism-based; details: dose 3-30 mg/kg, time 14.0 day
# [6] = target: Macrophage-stimulating protein receptor (Homo sapiens) (UniProt Q04912); test: Inhibition of human RON incubated for 5 mins in presence of ATP by chelation-enhanced fluorescence based Beckman Coulter analysis relative to control
# [7] = Displacement of tracer 236 from N-terminal GST-tagged recombinant human MET […] mutant (956 to end residues) expressed in Sf9 insect cells incubated for 1 hr by TR-FRET assay
# [8] = target: Vascular endothelial growth factor receptor 2 (Homo sapiens, UniProt P35968); test: Inhibition of VEGFR2 in human Flp-In-293 cells by ELISA; assay type: toxicity, cell-based
# [9] = Ratio of unbound drug concentration in female athymic nude Foxn1nu mouse brain to plasma at 30 mg/kg, po administered as single dose and measured after 24 hrs by LC/MS analysis; assay type: ADME, organism-based; details: read-out: K(p,uu,brain)
# [10] = test system: Hs746T; test: Antitumor activity against human Hs746T cells expressing MET exon 14 skipping mutation with MET amplification xenografted in female athymic nude Foxn1nu mouse at 100 mg/kg, po qd administered for 14 days; assay type: functional, organism-based; details: time 14.0 day
# [11] = Tmax in female athymic nude Foxn1nu mouse at 30 mg/kg, po administered as single dose and measured after 24 hrs by LC/MS analysis; assay type: ADME, organism-based; details: in vivo
# [12] = In vivo inhibition of MET in female athymic nude Foxn1nu mouse implanted with mouse NIH3T3 cells expressing luciferase and human MET exon 14 deletion construct with MET-D1228N Type I resistance mutation assessed as reduction in phospho-MET protein level in tumor by measuring residual activity at 30 to 100 mg/kg, po administered as single dose measured after 12 hrs by ELISA relative to control; assay type: functional; details: dose 30-100 mg/kg
# [13] = Cmax in female athymic nude Foxn1nu mouse plasma at 30 mg/kg, po administered as single dose and measured after 24 hrs by LC/MS analysis; assay type: ADME, organism-based
# [14] = Ratio of unbound drug concentration in female athymic nude Foxn1nu mouse brain to plasma at 100 mg/kg, po administered as single dose and measured after 24 hrs by LC/MS analysis; assay type: ADME, organism-based; details: read-out: K(p,uu,brain)
# [15] = test system: NIH3T3; test: Antitumor activity against mouse NIH3T3 cells expressing luciferase and human MET exon 14 deletion construct with MET-D1228N Type I resistance mutation implanted in female athymic nude Foxn1nu mouse assessed as reduction in tumor burden at 30 mg/kg, po bid measured after 29 days by luminescent imaging based analysis; assay type: functional, organism-based; details: time 29.0 day
# [16] = target: T1, Hepatocyte growth factor receptor; test: Inhibition of MET D1228N mutant (unknown origin) transfected in mouse NIH3T3 cells incubated for 1 hr by In-Cell Western assay; assay type: cell-based
# [17] = Apparent permeability across apical to basolateral side in MDCKII-MDR1 cells at 1 uM incubated for 2 hrs in orbital shaker by LC-MS/MS analysis; assay type: ADME, cell-based, Canis lupus familiaris; details: dog, MDCK-MDR1
# [18] = Displacement of tracer 236 from N-terminal GST-tagged recombinant human MET exon 14 deletion mutant (956 to end residues) expressed in Sf9 insect cells incubated for 1 hr by TR-FRET assay
# [19] = Hepatic extraction ratio in female athymic nude Foxn1nu mouse at 1 mg/kg, iv administered as single dose and measured after 24 hrs by LC/MS analysis; assay type: ADME, organism-based; details: in vivo, read-out: ERH
# [20] = test system: Cytochrome P450; test: Inhibition of CYP450 (unknown origin); assay type: ADME, protein assay; details: human
# [21] = test system: NIH3T3; test: Antitumor activity against mouse NIH3T3 cells expressing luciferase and human MET exon 14 deletion construct with MET-D1228N Type I resistance mutation implanted in female athymic nude Foxn1nu mouse assessed as median survival time at 30 mg/kg, po bid measured after 29 days (reference value: 15.5 day); assay type: functional; details: time 29 day
# [22] = Metabolic stability in human hepatocytes assessed as clearance at 2 uM measured upto 120 mins by LC-MS/MS analysis; assay type: ADME, cell-based, Hepatocyte
# [23] = Half life in female athymic nude Foxn1nu mouse at 1 mg/kg, iv administered as single dose and measured after 24 hrs by LC/MS analysis; assay type: ADME, organism-based; details: in vivo
# [24] = AUCinfinity in female athymic nude Foxn1nu mouse at 30 mg/kg, po administered as single dose and measured after 24 hrs by LC/MS analysis; assay type: ADME, organism-based; details: in vivo
# [25] = Volume of distribution at steady state in female athymic nude Foxn1nu mouse at 1 mg/kg, iv administered as single dose and measured after 24 hrs by LC/MS analysis; assay type: ADME, organism-based; details: in vivo, read-out: Vdss
# [26] = Efflux ratio of apparent permeability across basolateral to apical over apical to basolateral side in MDCKII-MDR1 cells at 1 uM incubated for 2 hrs in orbital shaker by LC-MS/MS analysis; assay type: ADME, cell-based, Canis lupus familiaris; details: dog, MDCK-MDR1
# [27] = test system: Mus musculus; test: In vivo inhibition of MET in female athymic nude Foxn1nu mouse xenografted with human Hs746T cells expressing MET exon 14 skipping mutation with MET amplification assessed as reduction in phospho-MET protein level in tumor at 3 to 100 mg/kg, po administered as single dose measured after 2 to 8 hrs by ELISA relative to control; assay type: functional, organism-based; details: dose 3-100 mg/kg, time 2-8 hrs
# [28] = test system: NIH3T3; test: Antitumor activity against mouse NIH3T3 cells expressing luciferase and human MET exon 14 deletion construct with MET-D1228N Type I resistance mutation implanted in female athymic nude Foxn1nu mouse assessed as reduction in tumor burden at 100 mg/kg, po qd measured after 29 days by luminescent imaging based analysis; assay type: functional, organism-based; details: time 29.0 day
# [29] = Metabolic stability in mouse hepatocytes assessed as clearance at 2 uM measured upto 120 mins by LC-MS/MS analysis; assay type: ADME, cell-based, Hepatocyte
# [30] = target: Hepatocyte growth factor receptor (Homo sapiens, UniProt P08581, Y1230H); test: Displacement of tracer 236 from N-terminal GST-tagged recombinant human MET Y1230H mutant (956 to end residues) expressed in Sf9 insect cells incubated for 1 hr by TR-FRET assay
# [31] = target: Hepatocyte growth factor receptor (Homo sapiens, UniProt P08581, F1200I); test: Displacement of tracer 236 from N-terminal GST-tagged recombinant human MET F1200I mutant (956 to end residues) expressed in Sf9 insect cells incubated for 1 hr by TR-FRET assay
# T1 sequence (P08581 25-1390 D1228N limits assumed): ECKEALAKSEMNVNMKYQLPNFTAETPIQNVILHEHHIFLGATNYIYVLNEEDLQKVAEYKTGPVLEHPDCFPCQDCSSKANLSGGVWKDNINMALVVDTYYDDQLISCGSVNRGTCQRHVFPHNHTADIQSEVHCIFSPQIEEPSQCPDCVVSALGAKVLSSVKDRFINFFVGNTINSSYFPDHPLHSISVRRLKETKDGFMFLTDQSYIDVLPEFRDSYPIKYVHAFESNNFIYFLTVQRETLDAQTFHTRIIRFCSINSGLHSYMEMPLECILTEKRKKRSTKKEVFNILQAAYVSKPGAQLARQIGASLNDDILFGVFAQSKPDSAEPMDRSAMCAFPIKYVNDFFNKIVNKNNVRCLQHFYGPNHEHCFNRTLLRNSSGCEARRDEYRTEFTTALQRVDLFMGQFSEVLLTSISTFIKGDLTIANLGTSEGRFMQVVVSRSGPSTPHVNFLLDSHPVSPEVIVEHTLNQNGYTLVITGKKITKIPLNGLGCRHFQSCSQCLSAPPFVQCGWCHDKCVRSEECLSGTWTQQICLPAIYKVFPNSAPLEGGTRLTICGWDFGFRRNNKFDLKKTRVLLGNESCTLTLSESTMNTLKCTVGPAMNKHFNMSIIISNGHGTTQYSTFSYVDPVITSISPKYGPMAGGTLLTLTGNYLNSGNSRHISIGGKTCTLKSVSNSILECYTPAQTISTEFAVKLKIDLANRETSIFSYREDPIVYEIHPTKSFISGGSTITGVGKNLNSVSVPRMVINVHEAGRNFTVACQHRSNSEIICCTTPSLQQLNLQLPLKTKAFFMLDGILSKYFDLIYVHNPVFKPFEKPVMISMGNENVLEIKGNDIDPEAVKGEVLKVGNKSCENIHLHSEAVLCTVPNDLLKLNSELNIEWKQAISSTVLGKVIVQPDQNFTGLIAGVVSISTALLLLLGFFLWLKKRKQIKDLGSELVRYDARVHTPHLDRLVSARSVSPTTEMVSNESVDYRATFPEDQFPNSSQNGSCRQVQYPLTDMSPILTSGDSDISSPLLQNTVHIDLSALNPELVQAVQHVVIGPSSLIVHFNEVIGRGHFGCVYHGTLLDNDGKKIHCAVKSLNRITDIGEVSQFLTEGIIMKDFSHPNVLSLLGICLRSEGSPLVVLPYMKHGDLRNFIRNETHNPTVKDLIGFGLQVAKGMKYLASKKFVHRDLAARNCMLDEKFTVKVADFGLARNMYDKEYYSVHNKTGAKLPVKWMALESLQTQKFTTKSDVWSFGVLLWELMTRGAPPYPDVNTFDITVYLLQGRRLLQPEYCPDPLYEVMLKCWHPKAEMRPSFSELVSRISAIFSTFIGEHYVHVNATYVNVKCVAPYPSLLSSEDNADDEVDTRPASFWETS
# Macrophage-stimulating protein receptor (Homo sapiens), sequence (Q04912 25-304 limits assumed): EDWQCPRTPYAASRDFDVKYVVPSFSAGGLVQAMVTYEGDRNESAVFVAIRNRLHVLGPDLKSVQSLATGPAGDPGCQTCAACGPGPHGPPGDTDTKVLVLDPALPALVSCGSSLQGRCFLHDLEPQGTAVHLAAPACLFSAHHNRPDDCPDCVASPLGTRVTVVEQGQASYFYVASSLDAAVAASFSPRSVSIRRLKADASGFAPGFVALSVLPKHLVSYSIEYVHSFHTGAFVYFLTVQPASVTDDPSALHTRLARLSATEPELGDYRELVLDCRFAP
# Macrophage-stimulating protein receptor (Homo sapiens), sequence (Q04912 310-1400 limits assumed): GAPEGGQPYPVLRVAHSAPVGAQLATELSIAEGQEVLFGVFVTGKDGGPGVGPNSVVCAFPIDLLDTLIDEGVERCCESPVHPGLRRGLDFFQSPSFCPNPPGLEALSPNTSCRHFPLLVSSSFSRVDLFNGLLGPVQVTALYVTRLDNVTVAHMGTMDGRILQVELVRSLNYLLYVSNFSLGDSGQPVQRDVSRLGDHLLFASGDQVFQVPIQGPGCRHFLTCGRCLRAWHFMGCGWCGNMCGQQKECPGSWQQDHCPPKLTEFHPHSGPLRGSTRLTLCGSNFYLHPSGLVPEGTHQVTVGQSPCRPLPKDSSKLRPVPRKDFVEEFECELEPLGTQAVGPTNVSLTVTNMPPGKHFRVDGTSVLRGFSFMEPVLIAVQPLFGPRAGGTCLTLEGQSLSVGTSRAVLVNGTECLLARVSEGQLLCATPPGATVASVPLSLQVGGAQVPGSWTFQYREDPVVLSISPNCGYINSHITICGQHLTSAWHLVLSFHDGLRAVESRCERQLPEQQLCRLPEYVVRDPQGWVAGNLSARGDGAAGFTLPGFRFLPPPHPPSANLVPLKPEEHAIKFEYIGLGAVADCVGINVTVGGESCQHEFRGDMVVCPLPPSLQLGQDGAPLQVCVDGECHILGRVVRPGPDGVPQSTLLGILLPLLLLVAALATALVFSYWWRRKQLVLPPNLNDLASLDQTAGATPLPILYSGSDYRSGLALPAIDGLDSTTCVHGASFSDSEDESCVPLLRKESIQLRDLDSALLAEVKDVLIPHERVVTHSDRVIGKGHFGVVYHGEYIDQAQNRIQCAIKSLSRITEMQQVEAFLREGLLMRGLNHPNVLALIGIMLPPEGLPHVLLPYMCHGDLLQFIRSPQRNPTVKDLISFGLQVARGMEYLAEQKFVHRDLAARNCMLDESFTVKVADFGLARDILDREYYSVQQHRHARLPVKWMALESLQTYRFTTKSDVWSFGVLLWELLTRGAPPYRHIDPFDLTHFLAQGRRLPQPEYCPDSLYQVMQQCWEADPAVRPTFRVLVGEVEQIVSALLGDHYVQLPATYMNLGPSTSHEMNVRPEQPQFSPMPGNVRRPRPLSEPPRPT
# Vascular endothelial growth factor receptor 2, sequence (P35968 whole entry): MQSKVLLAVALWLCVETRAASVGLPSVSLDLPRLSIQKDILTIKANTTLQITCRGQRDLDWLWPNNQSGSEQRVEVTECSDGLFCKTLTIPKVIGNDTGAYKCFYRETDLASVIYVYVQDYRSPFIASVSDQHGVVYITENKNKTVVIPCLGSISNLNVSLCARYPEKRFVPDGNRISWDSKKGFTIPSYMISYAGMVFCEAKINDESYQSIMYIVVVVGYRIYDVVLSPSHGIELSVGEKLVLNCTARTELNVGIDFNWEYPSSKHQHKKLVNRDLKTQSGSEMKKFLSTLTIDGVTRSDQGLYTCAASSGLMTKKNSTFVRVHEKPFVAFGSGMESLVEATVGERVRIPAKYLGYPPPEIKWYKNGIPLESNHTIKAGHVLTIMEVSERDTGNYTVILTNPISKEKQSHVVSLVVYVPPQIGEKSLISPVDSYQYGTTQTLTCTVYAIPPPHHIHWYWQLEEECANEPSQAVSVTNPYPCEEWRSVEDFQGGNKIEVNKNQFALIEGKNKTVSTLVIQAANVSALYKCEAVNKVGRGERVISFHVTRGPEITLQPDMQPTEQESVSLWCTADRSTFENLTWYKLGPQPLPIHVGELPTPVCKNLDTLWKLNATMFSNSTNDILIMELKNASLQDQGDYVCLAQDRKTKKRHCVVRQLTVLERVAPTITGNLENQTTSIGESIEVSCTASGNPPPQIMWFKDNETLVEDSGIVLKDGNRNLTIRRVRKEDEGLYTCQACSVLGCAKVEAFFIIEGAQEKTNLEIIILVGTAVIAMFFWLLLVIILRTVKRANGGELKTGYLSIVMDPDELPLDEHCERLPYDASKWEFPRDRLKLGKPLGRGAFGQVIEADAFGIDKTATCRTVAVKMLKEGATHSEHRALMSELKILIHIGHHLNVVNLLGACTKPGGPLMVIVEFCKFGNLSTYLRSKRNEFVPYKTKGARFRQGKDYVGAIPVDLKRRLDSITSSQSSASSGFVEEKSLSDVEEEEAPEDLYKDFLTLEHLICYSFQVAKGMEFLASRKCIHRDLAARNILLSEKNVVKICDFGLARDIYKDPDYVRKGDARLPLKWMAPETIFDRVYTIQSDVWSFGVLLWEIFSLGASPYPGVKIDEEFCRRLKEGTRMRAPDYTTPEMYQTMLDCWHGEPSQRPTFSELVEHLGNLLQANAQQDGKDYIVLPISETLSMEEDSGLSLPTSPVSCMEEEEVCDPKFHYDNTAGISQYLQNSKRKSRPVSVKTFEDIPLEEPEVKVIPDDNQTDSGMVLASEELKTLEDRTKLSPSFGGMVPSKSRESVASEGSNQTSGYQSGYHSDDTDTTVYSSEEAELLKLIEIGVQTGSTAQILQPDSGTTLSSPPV
smiles,measurement,setting,value
Cn1ccc([C@H]2C[C@H](N(c3cc(F)c(NC(=O)c4ccnn(-c5ccc(F)cn5)c4=O)cc3F)c3nccn4nccc34)C2)n1,clearance,[1],9.5 mL/min/kg
same,survival at 100 mg/kg,[2],100%
same,Cmax,[3],900 ng/mL
same,IC50,[4],6 nM
same,Activity,[5],Active
same,inhibition,[6],> 50%
same,IC50,[7],15 nM
same,IC50,[8],> 5000 nM
same,Kp uu at 24 h,[9],0.11
same,Activity,[10],Active
same,Tmax,[11],2 h
same,Activity,[12],<6%
same,Cmax,[13],10500 ng/mL
same,Kp uu at 24 h,[14],0.24
same,Activity,[15],Active
same,IC50,[16],23 nM
same,"Papp A→B at 2 h, 1 µM",[17],8 ×10⁻⁶ cm/s
same,IC50,[18],6 nM
same,hepatic extraction ratio at 24 h,[19],0.106
same,inhibition (INH),[20],Not Active
same,MST,[21],33 days
same,CLhep predicted at 2 µM,[22],13 mL/min/kg
same,half-life,[23],1.9 h
same,AUC(0-inf),[24],113 µg·h/mL
same,Vd,[25],1.3 L/kg
same,"efflux ratio at 2 h, 1 µM",[26],1.1
same,inhibition,[27],Active
same,Activity,[28],Active
same,CLhep predicted at 2 µM,[29],35 mL/min/kg
same,IC50,[30],5 nM
same,IC50,[31],90 nM
